Assay results taken from patent publication US20260078119A1, “DEGRADER COMPOUNDS AND USES THEREOF” (Bristol-Myers Squibb Company, priority 2024, published 2026).
Like-named read-outs stand apart in the source and are kept apart here.

Experiments:
FAK = molecular target: T1, FAK (Homo sapiens, UniProt Q05397); experiment: FAK-HiBiT Degradation Assay; type: cell-based; conditions: for DC50: read-out: FAK HiBiT EC50; for FAK HiBiT Ymin: lower limit of the four parameter fit (value A), Ymax derived using DMSO control, JHH-4-FAK-HiBiT cells, two hours
T1 construct: homozygous knock-in of a HiBiT tag (Promega Corporation, Madison, WI) to the C-terminus of the FAK gene in its natural genomic locus; endogenous in cells; host or cells: JHH-4-FAK-HiBiT clone d01 (CRISPR-Cas9 knock-in at the endogenous locus)
T1 sequence (Q05397 whole entry): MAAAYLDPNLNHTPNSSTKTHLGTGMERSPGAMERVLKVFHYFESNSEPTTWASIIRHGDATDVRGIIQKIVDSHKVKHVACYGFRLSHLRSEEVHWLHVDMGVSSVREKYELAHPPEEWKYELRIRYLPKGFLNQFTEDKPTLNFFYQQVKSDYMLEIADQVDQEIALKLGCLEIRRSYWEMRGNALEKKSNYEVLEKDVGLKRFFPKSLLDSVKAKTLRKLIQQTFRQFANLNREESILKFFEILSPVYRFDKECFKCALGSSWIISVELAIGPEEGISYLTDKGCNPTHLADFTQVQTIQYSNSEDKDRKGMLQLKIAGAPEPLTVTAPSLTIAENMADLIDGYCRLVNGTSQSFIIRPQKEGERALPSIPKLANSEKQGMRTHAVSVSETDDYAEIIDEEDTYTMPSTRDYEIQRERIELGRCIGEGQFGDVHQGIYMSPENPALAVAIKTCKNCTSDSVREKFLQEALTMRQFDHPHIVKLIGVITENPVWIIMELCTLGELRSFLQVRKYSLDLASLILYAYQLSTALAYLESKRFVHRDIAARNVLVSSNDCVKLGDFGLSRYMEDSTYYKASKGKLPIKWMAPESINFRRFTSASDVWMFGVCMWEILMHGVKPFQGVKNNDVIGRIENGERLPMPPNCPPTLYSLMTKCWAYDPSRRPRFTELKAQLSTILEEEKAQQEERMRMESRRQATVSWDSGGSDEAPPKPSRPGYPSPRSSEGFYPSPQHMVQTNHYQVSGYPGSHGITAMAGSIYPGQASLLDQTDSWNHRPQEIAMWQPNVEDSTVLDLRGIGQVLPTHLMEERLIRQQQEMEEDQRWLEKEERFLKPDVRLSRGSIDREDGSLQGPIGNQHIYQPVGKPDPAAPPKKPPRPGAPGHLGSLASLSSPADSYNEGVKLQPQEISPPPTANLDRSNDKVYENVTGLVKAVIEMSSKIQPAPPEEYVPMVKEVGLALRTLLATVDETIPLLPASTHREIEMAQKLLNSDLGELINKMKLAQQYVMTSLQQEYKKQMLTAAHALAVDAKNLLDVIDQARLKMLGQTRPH
Summary of the method: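 JHH-4 cells with homozygous CRISPR knock-in of C-terminal HiBiT on endogenous FAK, treated 2 h at 37 °C with compounds in 10-point 3-fold series from 1 μM. HiBiT lytic luminescence read; EC50 from four-parameter logistic fit, Ymax set by DMSO control, Ymin as lower fit limit.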

CAL-51 cells = experiment: CAL-51 Cell Proliferation Assay; type: cell-based; conditions: for EC50: 120 hours incubation, 10-point dose response, 4-fold dilutions starting at 10 μM, Cell-Titer-Glo, read-out: CAL-51 Prolif EC50; for CAL-51 Prolif Ymin: minimal percent of DMSO control observed in the concentrations tested (Ymin-obs), 120 hours
Excerpt: CAL-51 cells were obtained from Bristol Myers Squibb internal cell banks (originally sourced from DSMZ-German Collection of Microorganisms and Cell Cultures GmbH, Germany) and cultured in RPMI complete media (RPMI-1640, 10% Fetal Bovine serum, 1× Antibiotic-Antimycotic, and 1× Non-Essential Amino Acids). Compounds were dispensed into 384-well plates using an acoustic dispenser (Beckman Coulter Life Sciences, Carlsbad, CA) in duplicate with 14 compounds on each plate. For each compound, a 10-point dose response was printed at 4-fold dilutions starting at 10 μM. The DMSO concentration was kept constant for a final assay concentration of 0.1% per well assuming 50 uL final media volume. Compound plates were sealed and frozen at −20° C. until use.
For each assay batch, compound plates were thawed and allowed to reach room temperature, and cells were seeded at 350 cells per well in 50 μl complete RPMI media. After 120 hours of incubation at 37° C. and 5% CO2, cells were lysed by addition of 25 μL of Cell-Titer-Glo Reagent (Promega Corporation, Madison, WI), as per manufacturer's instructions, protected from light, shaken for 20 minutes, and total luminescence read by a CLARIOstar Plus plate reader (BMG LabTech, Cary, NC). Total luminescence signal is linearly correlated with cell number remaining in the well.
Luminescence data was processed per plate by subtracting reagent-only “blank” well luminescence from all measured values and calculating a percent of DMSO control value for each treatment well. Then, to determine the half-maximal effective concentration (EC50) values for cell growth inhibition, a four parameter logistic model was fit to the data for each DMSO-normalized compound: Sigmoidal Dose-Response Model: (FIT=(A+((B−A)/1+((C/x)^D)))) where C is the inflection point (EC50), D is the Hill slope, and A and B are the low and high limits of the fit respectively. The lower limit of the fit (value A) is referred to as Ymin-calculated. The minimal percent of DMSO control that is observed in the concentrations tested for each compound is labeled as “Ymin-obs”, and was recorded and reported in the tables. Sigmoidal fit curves were processed and evaluated using Dotmatics Atlas (Insightful Science, LLC, Boston, MA).

[1] = JHH-4-FAK-HiBiT clone d01 cells, two hours incubation, 10-point dose response, 3-fold dilution starting at 1 μM, Nano-Glo HiBiT luminescence

DC50 (FAK; [1]) [nM]	FAK HiBiT Ymin (FAK)	SMILES	EC50 (CAL-51 cells; Homo sapiens) [nM]	CAL-51 Prolif Ymin (CAL-51 cells)	EC50 (FAK; [1]) [nM]	EC50 (CAL-51 cells) [nM]
22.9	12.95	COc1cnc(-c2cc(N3CC(F)C3)nc3c2cnn3Cc2ccc3c(c2)CN(C2CCC(=O)NC2=O)C3=O)c(C)c1 (centres unmarked) [Example 97, 3-(5-{[6-(3-fluoroazetidin-1-yl)-4-(5-methoxy-3-methylpyridin-2-yl)-1H-pyrazolo[3,4-b]pyridin-1-yl]methyl}-1-oxo-2,3-dihydro-1H-isoindol-2-yl)piperidine-2,6-dione]	14.4	38.61	–	–
8.5	11.53	O=C1CCC(N2Cc3cc(Cn4ncc5c(-c6ncc(C(F)(F)F)cc6Cl)cc(N6CC(F)C6)cc54)ccc3C2=O)C(=O)N1 (centres unmarked) [Example 26, 3-(5-((4-(3-chloro-5-(trifluoromethyl)pyridin-2-yl)-6-(3-fluoroazetidin-1-yl)-1H-indazol-1-yl)methyl)-1-oxoisoindolin-2-yl)piperidine-2,6-dione]	2.32	24.69	–	–
10.2	10.27	CN(c1cc(-c2ncc(C(F)(F)F)cc2Cl)c2cnn(Cc3ccc4c(c3)CN([C@H]3CCC(=O)NC3=O)C4=O)c2n1)C1CC(C)(O)C1 (stereo partly drawn) [Example 83, (3S)-3-[5-({4-[3-chloro-5-(trifluoromethyl)pyridin-2-yl]-6-{methyl[(1r,3s)-3-hydroxy-3-methylcyclobutyl]amino}-1H-pyrazolo[3,4-b]pyridin-1-yl}methyl)-1-oxo-2,3-dihydro-1H-isoindol-2-yl]piperidine-2,6-dione]	5.41	30.14	–	–
0.95	7.50	O=C1CCC(N2Cc3cc(Cn4ccc5c(-c6ncc(C(F)(F)F)cc6Cl)cc(N6CC(F)C6)nc54)ccc3C2=O)C(=O)N1 (centres unmarked) [Example 15, 3-(5-((4-(3-chloro-5-(trifluoromethyl)pyridin-2-yl)-6-(3-fluoroazetidin-1-yl)-1H-pyrrolo[2,3-b]pyridin-1-yl)methyl)-1-oxoisoindolin-2-yl)piperidine-2,6-dione]	0.89	29.00	–	–
11.1	11.71	Cc1cnc(-c2cc(N3CC(F)C3)nc3c2cnn3Cc2ccc3c(c2)CN(C2CCC(=O)NC2=O)C3=O)c(C)c1 (centres unmarked) [Example 85, 3-(5-{[4-(3,5-dimethylpyridin-2-yl)-6-(3-fluoroazetidin-1-yl)-1H-pyrazolo[3,4-b]pyridin-1-yl]methyl}-1-oxo-2,3-dihydro-1H-isoindol-2-yl)piperidine-2,6-dione]	6.82	35.10	–	–
1.8	17.06	O=C1CC[C@H](N2Cc3cc(Cn4ncc5c(-c6ncc(Cl)cc6F)cc(N6CC(F)C6)nc54)ccc3C2=O)C(=O)N1 [Example 47, (3S)-3-(5-{[4-(5-chloro-3-fluoropyridin-2-yl)-6-(3-fluoroazetidin-1-yl)-1H-pyrazolo[3,4-b]pyridin-1-yl]methyl}-1-oxo-2,3-dihydro-1H-isoindol-2-yl)piperidine-2,6-dione]	1.96	39.85	–	–
37.9	17.24	O=C1CC[C@H](N2Cc3cc(Cn4ncc5c(-c6ncc(C(F)(F)F)cc6Cl)cc(N6CCC(O)C6)nc54)ccc3C2=O)C(=O)N1 (stereo in doubt) [Example 106, (3S)-3-[5-({4-[3-chloro-5-(trifluoromethyl)pyridin-2-yl]-6-[(3R)-3-hydroxypyrrolidin-1-yl]-1H-pyrazolo[3,4-b]pyridin-1-yl}methyl)-1-oxo-2,3-dihydro-1H-isoindol-2-yl]piperidine-2,6-dione]	54.6	53.56	–	–
65.3	53.22	C[C@]1(O)CCN(c2cc(-c3ccc(C#N)cc3F)c3cnn(Cc4ccc5c(c4)CN(C4CCC(=O)NC4=O)C5=O)c3n2)C1 (stereo partly drawn) [Example 115, 4-(1-{[2-(2,6-dioxopiperidin-3-yl)-1-oxo-2,3-dihydro-1H-isoindol-5-yl]methyl}-6-[(3S)-3-hydroxy-3-methylpyrrolidin-1-yl]-1H-pyrazolo[3,4-b]pyridin-4-yl)-3-fluorobenzonitrile]	118	59.97	–	–
9.61	8.29	CCOc1cnc(-c2cc(N3CC(F)C3)nc3c2cnn3Cc2ccc3c(c2)CN([C@H]2CCC(=O)NC2=O)C3=O)c(C)c1 [Example 82, (3S)-3-(5-{[4-(5-ethoxy-3-methylpyridin-2-yl)-6-(3-fluoroazetidin-1-yl)-1H-pyrazolo[3,4-b]pyridin-1-yl]methyl}-1-oxo-2,3-dihydro-1H-isoindol-2-yl)piperidine-2,6-dione]	4.19	29.74	–	–
7.97	9.51	O=C1CC[C@H](N2Cc3nc(Cn4ncc5c(-c6ncc(C(F)(F)F)cc6Cl)cc(N6CC(F)C6)nc54)ccc3C2=O)C(=O)N1 [Example 76, (3S)-3-[2-({4-[3-chloro-5-(trifluoromethyl)pyridin-2-yl]-6-(3-fluoroazetidin-1-yl)-1H-pyrazolo[3,4-b]pyridin-1-yl}methyl)-5-oxo-5H,6H,7H-pyrrolo[3,4-b]pyridin-6-yl]piperidine-2,6-dione]	6.15	34.59	–	–
2.45	7.24	CN(c1cc(-c2ncc(F)cc2Cl)c2cnn(Cc3ccc4c(c3)CN(C3CCC(=O)NC3=O)C4=O)c2n1)C(F)(F)F (centres unmarked) [Example 53, 3-(5-{[4-(3-chloro-5-fluoropyridin-2-yl)-6-[methyl (trifluoromethyl)amino]-1H-pyrazolo[3,4-b]pyridin-1-yl]methyl}-1-oxo-2,3-dihydro-1H-isoindol-2-yl)piperidine-2,6-dione]	9.88	39.88	–	–
19.9	22.15	O=C1CC[C@H](N2Cc3cc(Cn4ncc5c(-c6ccc(F)cc6F)cc(N6CC[C@H](O)C6)nc54)ccc3C2=O)C(=O)N1 [Example 95, (3S)-3-(5-{[4-(2,4-difluorophenyl)-6-[(3S)-3-hydroxypyrrolidin-1-yl]-1H-pyrazolo[3,4-b]pyridin-1-yl]methyl}-1-oxo-2,3-dihydro-1H-isoindol-2-yl)piperidine-2,6-dione]	13.5	46.68	–	–

SMILES	DC50 (FAK; [1]) [nM]	FAK HiBiT Ymin (FAK)	EC50 (CAL-51 cells; Homo sapiens) [nM]	CAL-51 Prolif Ymin (CAL-51 cells)	EC50 (FAK; [1]) [nM]	EC50 (CAL-51 cells) [nM]
CN(c1cc(-c2ncc(C(F)(F)F)cc2Cl)c2cnn(Cc3ccc4c(c3)CN([C@H]3CCC(=O)NC3=O)C4=O)c2n1)C1CC(O)C1 (stereo partly drawn) [Example 64, (3S)-3-[5-({4-[3-chloro-5-(trifluoromethyl)pyridin-2-yl]-6-{methyl[(1s,3s)-3-hydroxycyclobutyl]amino}-1H-pyrazolo[3,4-b]pyridin-1-yl}methyl)-1-oxo-2,3-dihydro-1H-isoindol-2-yl]piperidine-2,6-dione]	–	9.77	–	32.02	4.29	2.32
O=C1CC[C@H](N2Cc3cc(Cn4ncc5c(-c6ncc(C7COC7)cc6Cl)cc(N6CC(F)C6)nc54)ccc3C2=O)C(=O)N1 (single isomer, unassigned) [Example 108]	40.5	13.46	18.2	28.68	–	–
